Experimental data published in publication PMC12040169 (PLOS Biology, 2025).

Test: in vitro
Conditions: human, hela cells, % viability

Structure (SMILES)	viability at 28.5 h, 10 µM [%]	viability at 28.5 h, 10 µM (bulk resorufin, single well) [%]
Cc1ccc(S(=O)(=O)Nc2ccc(N3CCCNCC3)cc2N(C)S(C)(=O)=O)cc1 [CBK000017C]	113	
O=S(=O)(Nc1ccc(N2CCNCC2)nc1)c1ccc(F)cc1F [CBK000022C]	110	
CN(CCOc1ccccc1)c1nccnc1N1CCNCC1 [CBK000035F]	109	
CC1CN(C(=O)OC(C)(C)C)CCN1 (stereo not drawn) [CBK000069C]	100	
Oc1cccc2c1OCO2 [CBK000070]	85.8	
CCOC(=O)Cc1csc(NS(=O)(=O)/C=C/c2ccccc2)n1 [CBK000072]	101	
c1ccc(-c2nc3cc4ccccc4cc3[nH]2)nc1 [CBK000130]	82.5	
Cc1oc(-c2ccccc2)nc1CCOc1ccc(NC(=O)c2ccc(Cl)cc2Cl)c(C(=O)O)c1 [CBK000168D]	88.6	
O=C(Nc1ccc(Cl)cc1C(=O)O)c1ccccc1Cl [CBK000171]	91.4	
Cc1cc(NC(=O)c2ccccc2O)n(C)n1 [CBK000190]	107	
O=C(Nc1ccc2[nH]ncc2c1)c1ccccc1Cl [CBK000191]	87.8	
CC(C)(C)OC(=O)n1cnc(CC#N)c1 [CBK000202]	83.1	
CCCNc1nc(O)cc(C(F)(F)F)n1 [CBK000214]	95.8	
Cc1nn(C)c(Oc2ccccc2OCc2ccccc2)c1[N+](=O)[O-] [CBK000281]	102	
COc1ccc(S(=O)(=O)n2ccc3cc(N4CCN(C)CC4)ccc32)cc1OC [CBK000286C]	79.6	
Cc1nn(C)c(Oc2cccc(C(F)(F)F)c2)c1C(=O)O [CBK000324]	102	
COc1cccc2c3c([nH]c12)CCCC3 [CBK000331]	95.8	
Cn1cc(C(=O)O)c(NC(=O)c2ccccc2Cl)n1 [CBK000353]	95.8	
O[C@H](CNCc1ccccc1)COc1cccc2c1C1CCC2CC1 [CBK000370]	92.6	
CC(=O)Nc1ccc(S(=O)(=O)Nc2ccnc(N3CCN4CCCC4C3)n2)cc1 (stereo not drawn) [CBK000380C]	91.1	
CC(C)(C)OC(=O)c1cc(C(=O)O)ccc1O [CBK000394]	90	
O=C1Nc2ccc(-c3ccsc3)cc2C1(O)O [CBK000421]	84.5	

Structure (SMILES)	viability at 28.5 h, 10 µM [%]	viability at 28.5 h, 10 µM (bulk resorufin, single well) [%]
CCCN(C(C)=O)c1nc(O)cc(C(F)(F)F)n1 [CBK000427]	85.5	
COc1ccc(CNC(=O)N(CCc2ccccc2)CC(C)(C)CN)cc1 [CBK000463C]	119	
N[C@H]1CC[C@H](N(CCc2ccccc2)C(=O)N[C@@H]2C[C@H]2c2ccccc2)CC1 [CBK000474C]	110	
NC1CCC(N(CCc2ccccc2)C(=O)Nc2ccc3c(c2)OCO3)CC1 (stereo not drawn) [CBK000480C]	83.1	
CC(C)(CN)CN(Cc1cccc2ccccc12)C(=O)NC1C[C@H]1c1ccccc1 (stereo partly drawn) [CBK000490C]	94.7	
COc1cccc(OCCO)c1 [CBK000514]	93.1	
Cc1cc(Cl)cc(Cl)c1S(=O)(=O)Nc1nc(CC(=O)O)cs1 [CBK000573]	92	
Cc1cc(OC(F)(F)F)ccc1S(=O)(=O)Nc1nc(CC(=O)O)cs1 [CBK000575]	87.8	
COc1cc2c(cc1OC)CN(C(=O)N(CCN)CCC(C)c1ccccc1)CC2 (stereo not drawn) [CBK000612C]	80.9	
OCCOc1ccc(Cl)c2cccnc12 [CBK000620]	78.1	
O=[N+]([O-])c1ccc(OCCOc2nccnc2N2CCNCC2)c2ncccc12 [CBK000623C]	94.9	
O=[N+]([O-])c1ccc(OCCO)cc1 [CBK000628]	84.8	
NC(=O)c1ccccc1OCCO [CBK000640]	87.8	
CN(C)CCOc1ncccc1OCCO [CBK000655F]	98.2	
Cc1ccc(S(=O)(=O)N(C)c2ccnc(N3CCN(C)CC3)n2)cc1 [CBK000671]	99.4	
N=C(N)NCC(=O)N(CCCc1cc(C(F)(F)F)cc(C(F)(F)F)c1)c1ccc2c(c1)OCO2 [CBK000702T]	80.1	
O=C(c1ccccc1)c1ccc(OCCO)cc1 [CBK000725]	94	
COc1ccc(-c2csc(NS(=O)(=O)c3c(C)cc(Cl)cc3Cl)n2)cc1 [CBK000814]	104	
CCOC(=O)Cc1csc(NS(=O)(=O)c2cc(Cl)c(Cl)s2)n1 [CBK000847]	98	
CCOC(=O)Cc1csc(NS(=O)(=O)c2ccc(OC(F)(F)F)cc2)n1 [CBK000852]	110	
Cc1n[nH]c(=O)c2noc(C)c12 [CBK000857]	108	
Cc1cc(Cl)cc(Cl)c1S(=O)(=O)Nc1nc2c(s1)CN(C(=O)N1CCOCC1)CC2 [CBK000931]	92.6	

Structure (SMILES)	viability at 28.5 h, 10 µM [%]	viability at 28.5 h, 10 µM (bulk resorufin, single well) [%]
COc1ccccc1OCCO [CBK000949]	98.3	
Cc1c(Cl)cccc1S(=O)(=O)Nc1nc(-c2cccc([N+](=O)[O-])c2)cs1 [CBK000994]	107	
COc1ccccc1N(CCCc1cc(C(F)(F)F)cc(C(F)(F)F)c1)C(=O)C(N)C(C)C (stereo not drawn) [CBK001004T]	98.5	
CCc1csc(C(=Cc2cccs2)C(N)=O)n1 [CBK001007]	90.2	
CCC(CN(C(=O)C(N)CCCCN)c1ccc2c(c1)OCO2)c1ccccc1 (stereo not drawn) [CBK001083T]	96.4	
N=C(N)NCC(=O)N(CCc1cc(C(F)(F)F)cc(C(F)(F)F)c1)c1cccc2ccccc12 [CBK001122T]	105	
CC(C)(C)c1csc(C(=Cc2ccc(C#N)cc2)C(N)=O)n1 [CBK001154]	88.7	
COc1ccc(CSc2nc(O)cc(C(F)(F)F)n2)cc1 [CBK001217]	85	
COc1ccc(Cl)cc1NC(=O)CC(C)(C)CC(=O)O [CBK001236]	90.4	
Cc1noc(C)c1S(=O)(=O)Nc1csc(C(F)(F)F)c1-c1ccccc1 [CBK001237]	91	
COc1ccccc1NS(=O)(=O)c1ccc(N2CCN3CCCC3C2)c(N)c1 (stereo not drawn) [CBK001266]	92.6	
Cc1n[nH]c(=O)c2c(C)noc12 [CBK001281]	101	
CCCCOc1ccc(S(=O)(=O)n2ccc3cc(N4CCNCC4)ccc32)cc1 [CBK001315C]	37.9	
COc1cccc2cc([C@H]3CN(C(=O)C(C)(C)N)C[C@@H]3C(=O)N3CCC4(CC3)CN(S(C)(=O)=O)c3ccccc34)oc12 [CBK001347C]	117	
Clc1cccc(N2CCNCC2)n1 [CBK001379]		95.3
Cc1ccc(OCCn2ccnc(N3CCNCC3)c2=O)c([N+](=O)[O-])n1 [CBK001381C]	88.1	
O=S(=O)(c1ccc(-c2ccccc2)cc1)n1ccc2cc(N3CCN(Cc4ccccc4)CC3)ccc21 [CBK001388C]	115	
CN(C)Cc1ncccc1OCCO [CBK001411C]	111	
OCCOc1ncnc2ccccc12 [CBK001412]	107	
O=C1CCc2cccc(OCCO)c21 [CBK001442]	92.7	
Nc1cc(S(=O)(=O)Nc2ccc(C(F)(F)F)cc2)ccc1N1CCCNCC1 [CBK001518C]	87.9	
CCOC(=O)[C@H]1CN(C(=O)C(C)(C)NC(=O)OC(C)(C)C)C[C@@H]1c1cc2cc(C)ccc2o1 [CBK001599]	91.1	
